Measurements from the NIST ThermoML archive (doi:10.1021/je900482x).

Experiment: isobaric coefficient of expansion
Settings: Liquid, Microcalorimeter

CCn1cc[n+](C)c1.F[B-](F)(F)F [1-ethyl-3-methylimidazolium tetrafluoroborate]
isobaric coefficient of expansion
Settings	5000 kPa	10000 kPa	15000 kPa	20000 kPa	25000 kPa	30000 kPa	35000 kPa	40000 kPa	45000 kPa	50000 kPa
278.15 K	0.000613 1/K	0.000605 1/K	0.000596 1/K	0.000591 1/K	0.000585 1/K	0.00058 1/K	0.000574 1/K	0.000567 1/K	0.00056 1/K	0.000555 1/K
288.15 K	0.000614 1/K	0.000602 1/K	0.000591 1/K	0.000587 1/K	0.000581 1/K	0.000574 1/K	0.000569 1/K	0.000561 1/K	0.000556 1/K	0.000554 1/K
298.15 K	0.000601 1/K	0.000596 1/K	0.000587 1/K	0.00058 1/K	0.000575 1/K	0.000568 1/K	0.000561 1/K	0.000554 1/K	0.000549 1/K	0.000545 1/K
308.15 K	0.000597 1/K	0.000589 1/K	0.000581 1/K	0.000573 1/K	0.000566 1/K	0.000561 1/K	0.000554 1/K	0.00055 1/K	0.000542 1/K	0.000537 1/K
318.15 K	0.000589 1/K	0.000585 1/K	0.000576 1/K	0.000569 1/K	0.000563 1/K	0.000556 1/K	0.00055 1/K	0.000544 1/K	0.000537 1/K	0.000532 1/K
328.15 K	0.000585 1/K	0.000578 1/K	0.000573 1/K	0.000566 1/K	0.000557 1/K	0.00055 1/K	0.000544 1/K	0.000537 1/K	0.000533 1/K	0.000528 1/K
338.15 K	0.000582 1/K	0.000574 1/K	0.000569 1/K	0.00056 1/K	0.000553 1/K	0.000549 1/K	0.00054 1/K	0.000534 1/K	0.000529 1/K	0.000525 1/K
348.15 K	0.000579 1/K	0.000574 1/K	0.000566 1/K	0.000562 1/K	0.000554 1/K	0.000546 1/K	0.00054 1/K	0.000533 1/K	0.000527 1/K	0.000521 1/K

CCCCCCn1cc[n+](C)c1.F[B-](F)(F)F [1-hexyl-3-methylimidazolium tetrafluoroborate]
isobaric coefficient of expansion
Settings	5000 kPa	10000 kPa	15000 kPa	20000 kPa	25000 kPa	30000 kPa	35000 kPa	40000 kPa	45000 kPa	50000 kPa
278.15 K	0.000621 1/K	0.000613 1/K	0.000605 1/K	0.000598 1/K	0.00059 1/K	0.000584 1/K	0.000576 1/K	0.000572 1/K	0.000562 1/K	0.000558 1/K
288.15 K	0.000616 1/K	0.000606 1/K	0.0006 1/K	0.000593 1/K	0.000586 1/K	0.000579 1/K	0.000572 1/K	0.000565 1/K	0.000558 1/K	0.000555 1/K
298.15 K	0.00061 1/K	0.000603 1/K	0.000595 1/K	0.000586 1/K	0.00058 1/K	0.000573 1/K	0.000564 1/K	0.000558 1/K	0.000552 1/K	0.000547 1/K
308.15 K	0.000605 1/K	0.000596 1/K	0.000589 1/K	0.000579 1/K	0.000572 1/K	0.000565 1/K	0.00056 1/K	0.000553 1/K	0.000545 1/K	0.000541 1/K
318.15 K	0.000599 1/K	0.000594 1/K	0.000585 1/K	0.000573 1/K	0.000566 1/K	0.00056 1/K	0.000554 1/K	0.000545 1/K	0.000537 1/K	0.000532 1/K
328.15 K	0.000594 1/K	0.000587 1/K	0.00058 1/K	0.000572 1/K	0.000562 1/K	0.000555 1/K	0.000549 1/K	0.00054 1/K	0.000536 1/K	0.000531 1/K
338.15 K	0.000591 1/K	0.000584 1/K	0.000575 1/K	0.000567 1/K	0.000558 1/K	0.000553 1/K	0.000544 1/K	0.000538 1/K	0.000532 1/K	0.000528 1/K
348.15 K	0.000588 1/K	0.000582 1/K	0.000572 1/K	0.000563 1/K	0.000555 1/K	0.000548 1/K	0.000543 1/K	0.000535 1/K	0.000529 1/K	0.000522 1/K

CCCCCCCC[n+]1ccn(C)c1.F[B-](F)(F)F [1-methyl-3-octylimidazolium tetrafluoroborate]
isobaric coefficient of expansion
Settings	5000 kPa	10000 kPa	15000 kPa	20000 kPa	25000 kPa	30000 kPa	35000 kPa	40000 kPa	45000 kPa	50000 kPa
278.15 K	0.000621 1/K	0.000613 1/K	0.000605 1/K	0.000598 1/K	0.00059 1/K	0.000584 1/K	0.000576 1/K	0.000572 1/K	0.000562 1/K	0.000558 1/K
288.15 K	0.000616 1/K	0.000606 1/K	0.0006 1/K	0.000593 1/K	0.000586 1/K	0.000579 1/K	0.000572 1/K	0.000565 1/K	0.000558 1/K	0.000555 1/K
298.15 K	0.00061 1/K	0.000603 1/K	0.000595 1/K	0.000586 1/K	0.00058 1/K	0.000573 1/K	0.000564 1/K	0.000558 1/K	0.000552 1/K	0.000547 1/K
308.15 K	0.000605 1/K	0.000596 1/K	0.000589 1/K	0.000579 1/K	0.000572 1/K	0.000565 1/K	0.00056 1/K	0.000553 1/K	0.000545 1/K	0.000541 1/K
318.15 K	0.000599 1/K	0.000594 1/K	0.000585 1/K	0.000573 1/K	0.000566 1/K	0.00056 1/K	0.000554 1/K	0.000545 1/K	0.000537 1/K	0.000532 1/K
328.15 K	0.000594 1/K	0.000587 1/K	0.00058 1/K	0.000572 1/K	0.000562 1/K	0.000555 1/K	0.000549 1/K	0.00054 1/K	0.000536 1/K	0.000531 1/K
338.15 K	0.000591 1/K	0.000584 1/K	0.000575 1/K	0.000567 1/K	0.000558 1/K	0.000553 1/K	0.000544 1/K	0.000538 1/K	0.000532 1/K	0.000528 1/K
348.15 K	0.000588 1/K	0.000582 1/K	0.000572 1/K	0.000563 1/K	0.000555 1/K	0.000548 1/K	0.000543 1/K	0.000535 1/K	0.000529 1/K	0.000522 1/K
